Data set [1] in a line: Pharmacokinetic study of T20 in hydrogel compositions or aqueous solution, single subcutaneous bolus injection, blood plasma levels. The class given is in vivo, Sprague-Dawley rats. As to conditions: for Tmax / half-life / AUC(0-inf) / Cmax / AUC(0-t): male, Sprague-Dawley, sc; for AUC(0-t): read-out: AUC(0-12). How it is done:
Pharmacokinetic studies were performed on 16 cannulated male Sprague-Dawley rats having an average weight of 0.230 kg (StdDev=0.008 kg). Specifically, the rats were divided randomly into four groups (Groups I-IV). The rats in Group I were each administered T20 at a concentration of 50 mg/mL in a higher viscosity gel system (i.e., of the F2-50 pharmaceutical composition described in Section 6.1, supra. The rats in Group II were each administered T20 at a concentration of 25 mg/mL in a higher viscosity gel system (i.e., of the F2-25 pharmaceutical composition described in Section 6.1, supra). The rats in Group III were each administered T20 at a concentration of 25 mg/mL in a lower viscosity gel system (i.e., of the F5-25 pharmaceutical composition described in Section 6.1, supra). The rats in Group IV were administered T20 at a concentration of 25 mg/mL in an aqueous buffer (i.e., the WI-25 pharmaceutical composition described supra) as a control. The rats in all of the groups received the T20 via a single subcutaneous bolus injection of 25 μL of the formulation on the right side of the abdomen through a 30G½ Gauge needle. Each group received a dose level of approximately 5 mg/kg (Group I) or 2.5 mg/kg (Groups II-IV). More specifically, the dosages received by the animals in Groups I-IV were 6.71 mg/kg, 2.90 mg/kg, 3.27 mg/kg and 2.78 mg/kg, respectfully. These dosages were selected to approximate the dose levels, on a mg/cm^2 basis, to be used in humans.
Blood plasma levels of T20 were measured from samples collected from the animals immediately after (0 hours) and 1, 2, 4, 8, 12, and 24 hours post-dosing.
(§1) Pharmacokinetic parameters were calculated from the data as follows: The terminal elimination phase half (t½, terminal) was calculated using the equation 0.693/k, where k equals the terminal elimination rate constant and is determined from a log/linear regression of at least three data points from the plasma concentration-time curve. Cmax was defined as the highest observed concentration between 0 and 12 hours postdose, and tmax is the collection time corresponding to Cmax. The area under the plasma concentration-time curve from 0 to 12 hours postdose (AUC(0-12) was calculated using the trapezoidal rule. AUC(0-∞) was calculated using the trapezoidal rule and extrapolated to infinity by dividing the last plasma concentration by the terminal elimination rate constant (k). PTF values (peak-trough fluctuations) were calculated using the equation (Cmax-Cmin)/Cav. Cmin was defined as the concentration of T20 at 12 hours postdose, and Cav was calculated using the equation AUC(0-12)/12.

A short description of data set [2]: Pharmacokinetic study of T1249 in hydrogel composition or aqueous solution, subcutaneous injection, blood plasma levels. The format is in vivo, Sprague-Dawley rats. As to conditions: s.c.; for PTF / AUC(0-inf) / Cmax / Tmax / AUC(0-t) / half-life: approximately 1.25 mg/kg, rat plasma; for AUC(0-inf) / Cmax / Tmax / AUC(0-t) / half-life: Sprague-Dawley, rat, plasma, sc, 1.25 mg/kg; for AUC(0-t): read-out: AUC(0-12); for half-life: read-out: t1/2,terminal (converted). The procedure:
as §1
Carrier hydrogel compositions containing T1249 were prepared in both a hydrogel and aqueous compositions. A hydrogel composition was prepared by adding 12.5 mg of lyophilized T1249 to 1 mL of the F5 hydrogel formulation described above in Section 6. A pharmaceutical composition of T1249 in aqueous solution was also prepared by combining lyophilized T1249 (12.5 mg) to 2 mL of water for injection (USP). The contained 12.5 mg of T1249, 25 mg mannitol and sodium hydroxide/hydrochloric acid to adjust the pH to 6.5.
The T1249 carrier hydrogel composition were administered to Sprague-Dawley rats according to the protocol described in Section 7.1, above, for T20. The rats were divided randomly into two groups (Groups I and II). The rats in Group I were each administered the above-described hydrogel compositions containing T1249. The rats in Group II were each administered the above-described composition of T1249 in aqueous buffer as a control. Blood plasma levels of T1249 were measured from samples collected from the animals immediately after (0 hours) and 1, 2, 4, 8, 12, 24, 36 and 48 hours post-dosing.
Pharmacokinetic parameters were calculated from the data as described in Section 7.1, above.

Setting [3] is: T20 as a subcutaneous injection of a hydrogel.
The mark [4] stands for this setting: 2.9 mg/kg, Group II: F2-25, 25 mg/mL T20 in high viscosity hydrogel, single s.c. bolus 25 μL, 2.90 mg/kg, rat plasma.
Where [5] appears, read: Group I: F2-50, 50 mg/mL T20 in high viscosity hydrogel, single s.c. bolus 25 μL, 6.71 mg/kg, rat plasma.
The mark [6] stands for this setting: Group III: F5-25, 25 mg/mL T20 in lower viscosity hydrogel, single s.c. bolus 25 μL, 3.27 mg/kg, rat plasma.
The mark [7] stands for this setting: Group IV: WI-25, 25 mg/mL T20 in aqueous buffer (control), single s.c. bolus 25 μL, 2.78 mg/kg, rat plasma.
Where [8] appears, read: Group I: 12.5 mg/mL T1249 in low viscosity hydrogel (F5).
The mark [9] stands for this setting: Group II: 12.5 mg/mL T1249 in aqueous buffer (control).

This note sets out measurements from patent US6541020B1, “Methods and compositions for administration of therapeutic reagents” (Trimeris, Inc., priority 1999, dated 2003).

A word on the Tmax: it is the time from dosing to the highest level. As a reminder, the AUC(0-inf) is total exposure, with the tail of the curve extrapolated. Read a low AUC(0-inf) as low exposure. The Cmax is the highest concentration seen after dosing.

In the case of enfuvirtide, the “T20 plasma concentration levels within 12 hours” value in data set [1] (T20 administered by a hydrogel, s.c.) is listed as “remained elevated”; in data set [1] (T20 administered in an aqueous solution, s.c.), “already cleared the blood stream”. Further, in data set [1] (setting [3]), the “change of bioavailability, hydrogel versus aqueous solution” value was “approximately doubling”. Also, in data set [1] (setting [3]), the “change of half-life, hydrogel versus aqueous solution” value is on record as “approximately doubling”. Besides, in data set [1] (high viscosity hydrogel formulation of T20, s.c., both dose levels), the “dose proportionality of pharmacokinetics (AUC, t½)” value is reported as “linearity of pharmacokinetics within the dose range tested”. Moreover, the time to peak (Tmax) is about 2 h in data set [1] (rat, plasma, 2.78 mg/kg, Group IV: WI-25, 25 mg/mL T20 in aqueous buffer (control), single s.c. bolus 25 μL, 2.78 mg/kg, rat plasma); 4 h in data set [1] (rat, plasma, 2.9 mg/kg, Group II: F2-25, 25 mg/mL T20 in high viscosity hydrogel, single s.c. bolus 25 μL, 2.90 mg/kg, rat plasma); 4 h in data set [1] (rat, plasma, 3.27 mg/kg, Group III: F5-25, 25 mg/mL T20 in lower viscosity hydrogel, single s.c. bolus 25 μL, 3.27 mg/kg, rat plasma). Also, the half-life in data set [1] (rat, plasma, T20 administered in a hydrogel, s.c., depending on the exact hydrogel formulation and T20 dosage, read-out: group mean half-life values) was 256 to 285 min; in data set [1] (2.9 mg/kg, Group II: F2-25, 25 mg/mL T20 in high viscosity hydrogel, single s.c. bolus 25 μL, 2.90 mg/kg, rat plasma, read-out: t1/2,terminal (converted)) it was 256 ± 9.54 min; in data set [1] (Group I: F2-50, 50 mg/mL T20 in high viscosity hydrogel, single s.c. bolus 25 μL, 6.71 mg/kg, rat plasma, read-out: t1/2,terminal (converted)), 285 ± 17.1 min; in data set [1] (Group III: F5-25, 25 mg/mL T20 in lower viscosity hydrogel, single s.c. bolus 25 μL, 3.27 mg/kg, rat plasma, read-out: t1/2,terminal (converted)), 277 ± 37.1 min; in data set [1] (Group IV: WI-25, 25 mg/mL T20 in aqueous buffer (control), single s.c. bolus 25 μL, 2.78 mg/kg, rat plasma, read-out: t1/2,terminal (converted)) it was 131 min. Further, the AUC(0-inf) in data set [1] (setting [4]) was 24800 ± 4860 ng·h/mL; in data set [1] (setting [5]) it was 55400 ± 9150 ng·h/mL; in data set [1] (setting [6]), 32800 ± 9710 ng·h/mL; in data set [1] (setting [7]), 6080 ± 1610 ng·h/mL. Further, the Cmax turned out to be 2830 ± 316 ng/mL in data set [1] (setting [4]), 5970 ± 499 ng/mL in data set [1] (setting [5]), 3780 ± 751 ng/mL in data set [1] (setting [6]) and 1550 ± 640 ng/mL in data set [1] (setting [7]). Also, the AUC(0-t) in data set [1] (setting [4]) came to 19600 ± 3450 ng·h/mL; in data set [1] (setting [5]), 43400 ± 4480 ng·h/mL; in data set [1] (setting [6]), 25700 ± 6140 ng·h/mL; in data set [1] (setting [7]) it was 5870 ± 1690 ng·h/mL.
Regarding `CC[C@H](C)[C@H](NC(=O)[C@H](CCC(N)=O)NC(=O)[C@H](C)NC(=O)[C@H](CCC(N)=O)NC(=O)[C@H](CCC(=O)O)NC(=O)[C@H](CC(C)C)NC(=O)[C@H](CC(C)C)NC(=O)[C@H](C)NC(=O)[C@@H](NC(=O)[C@@H](NC(=O)[C@H](CCCCN)NC(=O)[C@H](CCC(N)=O)NC(=O)[C@H](CCC(=O)O)NC(=O)[C@H](Cc1c[nH]c2ccccc12)NC(=O)[C@H](CCC(=O)O)NC(=O)[C@H](CCC(N)=O)NC(=O)[C@H](Cc1c[nH]c2ccccc12)NC(C)=O)[C@@H](C)CC)[C@@H](C)O)C(=O)N[C@@H](CCC(N)=O)C(=O)N[C@@H](CCC(N)=O)C(=O)N[C@@H](CCC(=O)O)C(=O)N[C@@H](CCCCN)C(=O)N[C@@H](CC(N)=O)C(=O)N[C@@H](CCC(=O)O)C(=O)N[C@@H](Cc1ccc(O)cc1)C(=O)N[C@@H](CCC(=O)O)C(=O)N[C@@H](CC(C)C)C(=O)N[C@@H](CCC(N)=O)C(=O)N[C@@H](CCCCN)C(=O)N[C@@H](CC(C)C)C(=O)N[C@@H](CC(=O)O)C(=O)N[C@@H](CCCCN)C(=O)N[C@@H](Cc1c[nH]c2ccccc12)C(=O)N[C@@H](C)C(=O)N[C@@H](CO)C(=O)N[C@@H](CC(C)C)C(=O)N[C@@H](Cc1c[nH]c2ccccc12)C(=O)N[C@@H](CCC(=O)O)C(=O)N[C@@H](Cc1c[nH]c2ccccc12)C(=O)N[C@@H](Cc1ccccc1)C(N)=O` [T1249], in data set [2] (setting [8]), the PTF is 1.62 ± 0.086, the AUC(0-inf) was 29100 ± 5200 ng·h/mL, the Cmax came to 1900 ± 334 ng/mL and the Tmax stood at 8 h. Besides, in data set [2] (setting [8]), the AUC(0-t) came out at 28200 ± 5640 ng·h/mL and the half-life is 202 ± 40.8 min. In data set [2] (setting [9]), the PTF is listed as 4.44 ± 0.680, the AUC(0-inf) turned out to be 18400 ± 4070 ng·h/mL, the concentration peaked (Cmax) at 3320 ± 215 ng/mL and the Tmax came out at 2 h. In data set [2] (setting [9]), the AUC(0-t) stood at 18300 ± 4060 ng·h/mL and the half-life is 137 ± 7.32 min. Also, in data set [2] (T1249 administered in a hydrogel composition), the “pharmacokinetic properties, hydrogel versus aqueous solution” value is on record as “improved pharmacokinetic properties”.
